Experimental findings from US20060217418A1, “Substituted alkyl amido piperidines” (priority 2001, published 2006) are described below.

The test addresses T1, rat MCH1 receptor (Rattus norvegicus, UniProt P97639).
T1 construct: operatively linked to DNA encoding the rat MCH1 receptor so as to permit expression thereof; expressed in transfected cells; host or cells: Human embryonic kidney Peak rapid 293 (Peakr293) cells, transient calcium phosphate transfection, membranes
Nature of the test: Radioligand binding assay at cloned rat MCH1 receptor ([3H]Compound A). Particulars: cloned rat MCH1, Peakr293 cell membranes, 0.08 nM [3H]Compound A, 25° C., 90 minutes; read-out: Ki(MCH-1).

T1 sequence (P97639 whole entry): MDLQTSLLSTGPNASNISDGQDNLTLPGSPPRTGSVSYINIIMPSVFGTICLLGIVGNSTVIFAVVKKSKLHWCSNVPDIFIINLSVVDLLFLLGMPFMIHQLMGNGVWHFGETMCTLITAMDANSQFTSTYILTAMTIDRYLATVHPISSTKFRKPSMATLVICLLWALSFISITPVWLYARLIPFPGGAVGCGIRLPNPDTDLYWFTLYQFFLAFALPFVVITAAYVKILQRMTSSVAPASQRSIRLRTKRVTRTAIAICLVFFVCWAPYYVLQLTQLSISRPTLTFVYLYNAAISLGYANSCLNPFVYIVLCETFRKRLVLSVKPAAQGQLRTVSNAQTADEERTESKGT

For `O=C(Nc1cccc(C2CCN(CCCNC(=O)C(c3ccc(F)cc3)c3ccc(F)cc3)CC2)c1)C1CC1` [Example 120, N-{3-[1-(3-{[2,2-BIS(4-FLUOROPHENYL)ACETYL]AMINO}PROPYL)-4-PIPERIDINYL] PHENYL}CYCLOPROPANECARBOXAMIDE], the Ki amounted to 0.4 nM. For the compound `CC(C)C(=O)Nc1ccc(F)c(C2CCN(CCCNC(=O)C3(c4ccc(Cl)cc4)CCCC3)CC2)c1` [Example 128], the Ki is 2.9 nM.

In the case of `CC(C)C(=O)Nc1cccc(C2CCN(CCCNC(=O)C(F)(F)c3ccccc3)CC2)c1` [Example 125, N-{3-[1-(3{[DIFLUORO(PHENYL)ACETYL]AMINO}PROPYL)-4-PIPERIDINYL] PHENYL}2-METHYLPROPANAMIDE], the inhibitory constant (Ki) amounted to 124 nM. For `Cc1ccc(NC(=O)C(C)C)cc1C1CCN(CCCNC(=O)[C@@H](C)c2ccc(F)cc2)CC1` [Example 168, (2S)-2-(4-fluorophenyl)-N-(3-{4-[5-(isobutyrylamino)-2-methylphenyl]-1-piperidinyl}propyl) propanamide] the value was 12.1 nM; for `CC(C)C(=O)Nc1ccc(C2CCN(CCCNC(=O)C(c3ccccc3)c3ccccc3)CC2)cc1` [Example 148], 144 nM. Then `CCC(=O)Nc1cccc(C2CCN(CCCNC(=O)C(c3ccc(F)cc3)c3ccc(F)cc3)CC2)c1` [Example 21, N-{3-[1-(3-{[2,2-BIS(4-FLUOROPHENYL)ACETYL]AMINO}PROPYL)-4-PIPERIDINYL] PHENYL}PROPANAMIDE], with 0.7 nM. In the case of `CC(C)C(=O)Nc1cccc(C2CCN(CCCNC(=O)C3(c4ccc(F)cc4)CCCCC3)CC2)n1` [Example 68, 1-(4-FLUOROPHENYL)-N-(3-{4-[6-(ISOBUTYRYLAMINO)-2-PYRIDINYL]-1-PIPERIDINYL} PROPYL)CYCLOHEXANECARBOXAMIDE], the inhibitory constant (Ki) turned out to be 16.9 nM.

Turning to `CC(C)OC(=O)Nc1cccc(C2CCN(CCCNC(=O)C(c3ccc(F)cc3)c3ccc(F)cc3)CC2)c1` [Example 146, ISOPROPYL 3-[1-(3-{[BIS(4-FLUOROPHENYL)ACETYL]AMINO}PROPYL)-4-PIPERIDINYL]PHENYLCARBAMATE], the Ki was 6.2 nM. For `CC(C)C(=O)Nc1cccc(C2CCN(CCCNC(=O)C3(c4ccc(Cl)cc4)CCCC3)CC2)n1` [Example 84] the value was 12.6 nM; for `CN(C)C(=O)Nc1cccc(C2CCN(CCCNC(=O)C(c3ccc(F)cc3)c3ccc(F)cc3)CC2)c1` [Example 139], 33.4 nM; for `CCC(C(=O)NCCCN1CCC(c2cccc(NC(=O)C3CC3)c2)CC1)(c1ccccc1)c1ccccc1` [Example 122, N-[3-(1-{3-[(2,2-DIPHENYLBUTANOYL)AMINO]PROPYL}-4-PIPERIDINYL)PHENYL] CYCLOPROPANECARBOXAMIDE], 4.8 nM. For `CC(C)C(=O)Nc1ccc(F)c(C2CCN(CCCNC(=O)C(F)(F)c3ccccc3)CC2)c1` [Example 136] the value was 48.7 nM; for `CCCC(=O)Nc1cccc(C2CCN(CCCNC(=O)C(C)(C)c3ccc(Cl)cc3)CC2)c1` [Example 80], 7.7 nM; for `Cc1ccc(NC(=O)C(C)C)cc1C1CCN(CCCNC(=O)C2(c3ccc(F)cc3Cl)CCCC2)CC1` [Example 135, 1-(2-CHLORO-4-FLUOROPHENYL)-N-(3-{4-[5-(ISOBUTYRYLAMINO)-2-METHYL PHENYL]-1-PIPERIDINYL}PROPYL)CYCLOPENTANECARBOXAMIDE], 5.2 nM.

Take `CC(C)C(=O)Nc1cccc(C2CCN(CCCNC(=O)C3(c4ccc(Cl)cc4)CCC3)CC2)n1` [Example 73, 1-(4-CHLOROPHENYL)-N-(3-{4-[6-(ISOBUTYRYLAMINO)-2-PYRIDINYL]-1-PIPERIDINYL} PROPYL)CYCLOBUTANECARBOXAMIDE]: the Ki was 32.4 nM.

Consider `CC(C)C(=O)Nc1cccc(C2CCN(CCCNC(=O)C(c3ccc(Cl)cc3)c3ccc(Cl)cc3)CC2)c1` [Example 2, N-{3-[1-(3-{[BIS(4-CHLOROPHENYL)ACETYL]AMINO}PROPYL)-4-PIPERIDINYL] PHENYL}-2-METHYLPROPANAMIDE], for which the Ki amounted to 2.4 nM.

Take `CC(C)C(=O)Nc1cccc(C2CCN(CCCNC(=O)C(C)(c3ccccc3)c3ccccc3)CC2)n1` [Example 83]: the Ki is 10.3 nM. Then `CC(C)C(=O)Nc1cc(C2CCN(CCCNC(=O)C3(c4ccc(Cl)cc4)CC3)CC2)ccc1F` [Example 47], with 25.6 nM; and `CC(C)(C)C(=O)Nc1cccc(C2CCN(CCCNC(=O)C(c3ccccc3)c3ccccc3)CC2)c1` [Example 18], with 31.5 nM. Then `CCCC(=O)Nc1cc(C2CCN(CCCNC(=O)C(c3ccc(F)cc3)c3ccc(F)cc3)CC2)ccc1F` [Example 104], with 0.9 nM; and `CCCC(=O)Nc1cc(C2CCN(CCCNC(=O)C3(c4ccc(F)cc4)CCCC3)CC2)ccc1F` [Example 107], with 101 nM; and `CC(C)C(=O)Nc1cccc(C2CCN(CCCNC(=O)C3(c4ccc(Cl)cc4)CCCCC3)CC2)c1` [Example 45, 1-(4-CHLOROPHENYL)-N-(3-{4-[3-(ISOBUTYRYLAMINO)PHENYL]-1-PIPERIDINYL} PROPYL)CYCLOHEXANECARBOXAMIDE], with 4 nM.

As for `CC(C)C(=O)Nc1cccc(C2CCN(CCCNC(=O)C(C)c3ccc(Cl)cc3)CC2)c1` (stereo not drawn) [Example 37, 2-(4-CHLOROPHENYL)-N-(3-{4-[3-(ISOBUTYRYLAMINO)PHENYL]-1-PIPERIDINYL} PROPYL)PROPANAMIDE], the Ki amounted to 19.5 nM. Regarding `CCCC(=O)Nc1cccc(C2CCN(CCCNC(=O)C3(c4ccc(Cl)cc4)CC3)CC2)c1` [Example 69, N-(3-{4-[3-(butyrylamino)phenyl]-1-piperidinyl}propyl)-1-(4-chlorophenyl)cyclopropane carboxamide], the Ki is 39.9 nM.

`Cc1ccc(NC(=O)C(C)C)cc1C1CCN(CCCNC(=O)[C@H](C)c2ccccc2)CC1` [Example 164, 2-methyl-N-{4-methyl-3-[1-(3-{[(2R)-2-phenylpropanoyl]amino}propyl)-4-piperidinyl]phenyl} propanamide]: the Ki was 14.6 nM. On to `CC(C)C(=O)Nc1cccc(C2CCN(CCCNC(=O)C(c3ccccc3)(c3ccccc3)c3ccccc3)CC2)n1` [Example 82], for which the Ki came to 8.6 nM. For the compound `CC(C)C(=O)Nc1cccc(C2CCN(CCCNC(=O)C3(c4ccc(F)cc4)CCCC3)CC2)n1` [Example 66, 1-(4-FLUOROPHENYL)-N-(3-{4-[6-(ISOBUTYRYLAMINO)-2-pyridinyl]-piperidinyl}propyl) cyclopentanecarboxamide], the Ki came to 24.4 nM. Turning to `CC(C)C(=O)Nc1cccc(C2CCN(CCCNC(=O)C(C)c3ccc(Cl)cc3)CC2)n1` (stereo not drawn) [Example 90, 2-(4-CHLOROPHENYL)-N-(3-{4-[6-(ISOBUTYRYLAMINO)-2-PYRIDINYL]-1-PIPERIDINYL} PROPYL)PROPANAMIDE], the Ki worked out at 52.2 nM. For `COc1ccc(NC(=O)C(C)C)cc1C1CCN(CCCNC(=O)C(c2ccc(F)cc2)c2ccc(F)cc2)CC1` [Example 23] the value was 13.1 nM. Consider `CC(C)C(=O)Nc1cccc(C2CCN(CCCNC(=O)C3(c4ccc(Cl)cc4)CC3)CC2)n1` [Example 76, 1-(4-CHLOROPHENYL)-N-(3-{4-[6-(ISOBUTYRYLAMINO)-2-PYRIDINYL]-1-PIPERIDINYL} PROPYL)CYCLOPROPANECARBOXAMIDE], for which the Ki was determined as 48 nM. For `CC(C)C(=O)Nc1cccc(C2CCN(CCCNC(=O)C(C)(C)c3ccc(Cl)cc3)CC2)n1` [Example 88] the value was 23 nM; for `Cc1ccc(NC(=O)C(C)C)cc1C1CCN(CCCNC(=O)C(c2ccc(Cl)cc2)c2ccc(Cl)cc2)CC1` [Example 52], 4.1 nM; for `CC(C)C(=O)Nc1cccc(C2CCN(CCCNC(=O)C3(c4ccc(F)cc4)CCCCC3)CC2)c1` [Example 40, 1-(4-FLUOROPHENYL)-N-(3-{4-[3-(ISOBUTYRYLAMINO)PHENYL]-1-PIPERIDINYL} PROPYL)CYCLOHEXANECARBOXAMIDE], 7.9 nM. As for `Cc1ccc(NC(=O)C(C)C)cc1C1CCN(CCCNC(=O)C2(c3ccc(Cl)cc3)CCCC2)CC1` [Example 81], the Ki was 3.2 nM. For `CC(C)OC(=O)Nc1cccc(C2CCN(CCCNC(=O)C(C)(C)c3ccc(Cl)cc3)CC2)c1` [Example 142, Isopropyl 3-[1-(3-{[2-(4-Chlorophenyl)-2-Methylpropanoyl]Amino}Propyl)-4-Piperidinyl]Phenyl carbamate], the Ki was found to be 77.4 nM. Turning to `CC(C)C(=O)Nc1cccc(C2CCN(CCCNC(=O)C3(c4ccc(F)cc4Cl)CCCCC3)CC2)c1` [Example 138], the inhibition constant (Ki) was 10.2 nM. For `O=C(Nc1cccc(C2CCN(CCCNC(=O)C3(c4ccc(Cl)cc4)CCCC3)CC2)c1)C1CC1` [Example 112] the value was 3.2 nM; for `CCC(=O)Nc1cccc(C2CCN(CCCNC(=O)C3(c4ccc(F)cc4)CCCCC3)CC2)c1` [Example 61, 1-(4-FLUOROPHENYL)-N-(3-{4-[3-(PROPIONYLAMINO)PHENYL]-1-PIPERIDINYL} PROPYL)CYCLOHEXANECARBOXAMIDE], 63.3 nM. As for `CCCC(=O)Nc1cc(C2CCN(CCCNC(=O)C(c3ccccc3)c3ccccc3)CC2)ccc1F` [Example 65], the Ki was determined as 4.9 nM. For `Cc1ccc(NC(=O)C(C)C)cc1C1CCN(CCCNC(=O)C(C)(C)c2ccc(Cl)cc2)CC1` [Example 91], the Ki came to 2.9 nM.

Regarding `CC(C)(C(=O)NCCCN1CCC(c2cccc(NC(=O)C3CC3)c2)CC1)c1ccc(Cl)cc1` [Example 115], the Ki is 6.9 nM. For `CC(C)OC(=O)Nc1cccc(C2CCN(CCCNC(=O)C(c3ccccc3)c3ccccc3)CC2)c1` [Example 144, Isopropyl 3-(1-{3-[(Diphenylacetyl)Amino]Propyl}-4-Piperidinyl) Phenylcarbamate] the value was 33.2 nM. For `CC(C(=O)NCCCN1CCC(c2cccc(NC(=O)C3CC3)c2)CC1)(c1ccccc1)c1ccccc1` [Example 123, N-[3-(1-{3-[(2,2-DIPHENYLPROPANOYL)AMINO]PROPYL}-4-PIPERIDINYL)PHENYL] CYCLOPROPANECARBOXAMIDE] the value was 2.8 nM; for `O=C(Nc1cccc(C2CCN(CCCNC(=O)C(c3ccccc3)(c3ccccc3)c3ccccc3)CC2)c1)C1CC1` [Example 114], 4 nM; for `Nc1cccc(C2CCN(CCCNC(=O)C(c3ccccc3)c3ccccc3)CC2)c1` [Example 152], 115 nM.

By Ki is commonly meant the equilibrium dissociation constant of an inhibitor or competing ligand from its target.
